Several values for one entry are separate records, joined by “and”; a condition that tells them apart may be missing. Identical values can stand only once. Like-named read-outs stand apart in the source and are kept apart here.
Columns and labels:
[1] = test system: luciferase-expressing P. berghei liver stage parasites in HepG2 cells; experiment: Inhibition of liver-stage development assay (ILSDA), Method 2 (WRAIR, 96-well); assay type: cell-based, Plasmodium berghei; details: for AC50: Plasmodium berghei, HepG2, Method 2
in vitro [2] = details: human
in vitro [3] = details: human, hepg2 cells
HepG2 = details: human, hepg2 cells, 48 h
[4] = test system: Plasmodium falciparum Dd2 asexual blood stage parasites; experiment: microbe, parasite or virus in culture; design: species or system Plasmodium falciparum Dd2 in human erythrocytes; single determination (one 11-point concentration-response curve); details: Plasmodium falciparum, DD2, Erythrocyte, 72 h; read-out: AC50
[5] = test system: P. berghei-ANKA-GFP-LucCON liver stage parasites in HepG2-A16-CD81EGFP cells; experiment: P. berghei liver stage Pb-Luc assay, Method 1 (UCSD, 1536-well); assay type: cell-based, Plasmodium berghei; details: for activity at 1 µM / activity at 3 µM: 48 h; for Max Resp (signal direction of the dose response): Decrease = decreasing P. berghei viability with dose, Increase = increasing signal, Inactive = no dose response
[6] = test system: T1, Plasmodium falciparum Dd2-attB (parental line), asexual blood stages; experiment: microbe, parasite or virus in culture; design: replicate k of 3 (each line is one of three independent assays; the three lines of one compound and parasite line follow each other); details: n = 1
T1 construct: Dd2-attB, the isogenic parental line
How it was run: (§1)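 The transgenic line overexpresses fumarate-dependent yeast DHODH, bypassing parasite mETC and ubiquinone-dependent parasite DHODH. A subset of compounds was run in three independent assays on both lines, and line differences were tested by two-sided Student's t-test.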

[7] = test system: T2, Plasmodium falciparum Dd2-attB-ScDHODH (transgenic line expressing yeast DHODH), asexual blood stages; experiment: organism not typed; design: replicate k of 3 (each line is one of three independent assays; the three lines of one compound and parasite line follow each other); details: 72 h, n = 1
T2 construct: Dd2-attB-ScDHODH, the transgenic line that expresses yeast DHODH
How it was run: as §1

[8] = Method 2, Decrease = decreasing P. berghei viability with dose, Increase = increasing signal, Inactive = no dose response
[9] = Hill fit, 50% of maximum activity response, read-out: AC50
[10] = log10 of molar AC50 from Hill fit, read-out: Log AC50 (converted)
[11] = HepG2-A16-CD81EGFP cells, uninfected
[12] = Plasmodium berghei, 1 uM (compounds provided at 10 mM), average of 2 wells on a 1536 well plate, column 11, read-out: Pb-Luc (P. berghei liver stage), % of control, lower concentration, first repeat
[13] = Plasmodium berghei, 1 uM (compounds provided at 10 mM), average of 2 wells on a 1536 well plate, column 12, read-out: Pb-Luc (P. berghei liver stage), % of control, lower concentration, second repeat
[14] = Plasmodium berghei, 3 uM (compounds provided at 10 mM), average of 2 wells on a 1536 well plate, column 8, read-out: Pb-Luc (P. berghei liver stage), % of control, higher concentration, first repeat
[15] = Plasmodium berghei, 3 uM (compounds provided at 10 mM), average of 2 wells on a 1536 well plate, column 9, read-out: Pb-Luc (P. berghei liver stage), % of control, higher concentration, second repeat
[16] = Method 1, log10 of molar AC50 from Hill fit
[17] = Plasmodium berghei, Method 1, log10 of molar AC50 from Hill fit, read-out: Log AC50 (converted)
[18] = Plasmodium berghei, nominal 1 uM (10 mM stock), […] for 15 mM, 1.2 uM for 12 mM, 2 uM for 20 mM stock, average of 2 wells, 1536-well plate, repeat 1, read-out: Pb-Luc signal, 1 uM, repeat 1
[19] = Plasmodium berghei, nominal 1 uM (10 mM stock), […] for 15 mM, 1.2 uM for 12 mM, 2 uM for 20 mM stock, average of 2 wells, 1536-well plate, repeat 2, read-out: Pb-Luc signal, 1 uM, repeat 2
[20] = Plasmodium berghei, nominal 1 uM (10 mM stock), […] for 15 mM, 1.2 uM for 12 mM, 2 uM for 20 mM stock, average of 2 wells, 1536-well plate, repeat 3, read-out: Pb-Luc signal, 1 uM, repeat 3
[21] = Plasmodium berghei, nominal 3 uM (10 mM stock), 4.5 uM for 15 mM, 3.6 uM for 12 mM, 6 uM for 20 mM stock, average of 2 wells, 1536-well plate, repeat 1, read-out: Pb-Luc signal, 3 uM, repeat 1
[22] = Plasmodium berghei, nominal 3 uM (10 mM stock), 4.5 uM for 15 mM, 3.6 uM for 12 mM, 6 uM for 20 mM stock, average of 2 wells, 1536-well plate, repeat 2, read-out: Pb-Luc signal, 3 uM, repeat 2
[23] = Plasmodium berghei, nominal 3 uM (10 mM stock), 4.5 uM for 15 mM, 3.6 uM for 12 mM, 6 uM for 20 mM stock, average of 2 wells, 1536-well plate, repeat 3, read-out: Pb-Luc signal, 3 uM, repeat 3
[24] = nominal 1 uM (10 mM stock), […] for 15 mM, 1.2 uM for 12 mM, 2 uM for 20 mM stock, average of 2 wells, repeat 2
[25] = nominal 3 uM (10 mM stock), 4.5 uM for 15 mM, 3.6 uM for 12 mM, 6 uM for 20 mM stock, average of 2 wells, repeat 2

Row | SMILES | Max Resp (signal direction of the dose response) [1, 8] | viability at 48 h, 1 µM (in vitro [2]; [11]) | viability at 48 h, 3 µM (in vitro [2]; [11]) | CC50 at 48 h (in vitro [3]) | Log AC50 (M) (HepG2) | AC50 [4] | activity at 1 µM [5, 18] | activity at 1 µM [5, 19] | activity at 1 µM [5, 20] | activity at 3 µM [5, 21] | activity at 3 µM [5, 22] | activity at 3 µM [5, 23] | HepG2 viability signal, 1 uM, repeat 2 (HepG2-A16-CD81EGFP cells; [24]) | HepG2 viability signal, 3 uM, repeat 2 (HepG2-A16-CD81EGFP cells; [25]) | also measured
1 | O=C1c2ccccc2C2=Nc3ccccc3SC(c3ccc(Cl)cc3)C12 (stereo not shown) [MLS000566883-01] | Decrease | 90% | 85% | 43.2 µM | -4.3643 M | 2660 nM | – | – | – | – | – | – | – | – | AC50 [1, 9]: 3980 nM; AC50 [1, 10]: 3980 nM
2 | Cc1cccc(Nc2nc(NCc3ccco3)c3ccccc3n2)c1 [MLS000662793-01] | Inactive | 89% | 74% | 43.2 µM | -4.3643 M | 4730 nM | – | – | – | – | – | – | – | – | activity at 1 µM [5, 12]: 23%; activity at 1 µM [5, 13]: 19%; activity at 3 µM [5, 14]: 13%; activity at 3 µM [5, 15]: 11%
3 | CCO.Nc1nc(N)c2cc(Sc3ccc4ccccc4c3)ccc2n1 [MLS000757047-01] | Decrease | 103% | 93% | 27.3 µM | -4.5643 M | 1330 nM | – | – | – | – | – | – | – | – | AC50 [1, 9]: 2240 nM; AC50 [1, 10]: 2240 nM; activity at 1 µM [5, 12]: 12%; activity at 1 µM [5, 13]: 12%; activity at 3 µM [5, 14]: 11%; activity at 3 µM [5, 15]: 10%; HepG2 viability, % of control, higher concentration, second repeat (HepG2-A16-CD81EGFP cells): 96%; HepG2 viability, % of control, lower concentration, second repeat (HepG2-A16-CD81EGFP cells): 99%
4 | c1ccc(Nc2nc(NCc3ccco3)c3ccccc3n2)cc1 [MLS000767881-01] | Decrease | 94% | 80% | 43.2 µM | -4.3643 M | 1680 nM | – | – | – | – | – | – | – | – | AC50 [1, 9]: 2240 nM; AC50 [1, 10]: 2240 nM
5 | COc1ccc(CCN2CCC(Nc3nc4ccccc4n3Cc3ccc(F)cc3)CC2)cc1 [NCGC00016913-08] | – | – | – | 34.3 µM | -4.4643 M | 2370 nM | – | – | – | – | – | – | – | – | Max Resp (signal direction of the dose response) [1]: Inactive; AC50 [5]: 3160 nM; Max Resp (signal direction of the dose response) ([5]; Method 1): Decrease; Log AC50 (M) [5, 16]: -5.500 M; AC50 [5, 17]: 2820 nM
6 | N=c1n(CCN2CCCCC2)c2ccccc2n1CC(O)COc1ccc(Cl)cc1Cl (stereo not shown) [NCGC00100256-01] | – | 103% | 102% | 30.6 µM | -4.5143 M | 4220 nM | 94.7% | 93.8% | 119% | 65.4% | 71% | 72.8% | 103.32% | 101.25% | –
7 | CCCCCn1c(=N)n(CC(O)COc2cccc(C)c2)c2ccccc21 (stereo not shown) [NCGC00101833-01] | – | 98.8% | 94.8% | 43.2 µM | -4.3643 M | 2110 nM | 93.7% | 90.1% | 79.6% | 67.5% | 71% | 96.1% | 100.99% | 100.64% | –
8 | CN(C)CCCNc1cc(N2CCN(C3CCCCC3)CC2)c2noc3c2c1C(=O)c1ccccc1-3 [NCGC00111069-01] | – | 96.3% | 93.8% | 38.5 µM | -4.4143 M | 1330 nM | 66% | 110% | 109% | 57.2% | 71.6% | 75.6% | 102.79% | 99.71% | –
9 | Oc1cc(NCc2ccccc2)cc2cccnc12 [NCGC00183793-01] | – | 91% | 52% | 43.2 µM | -4.3643 M | 2990 nM | – | – | – | – | – | – | – | – | Individual replicates / Log AC50 (M) ([6]; 72 h): -5.3986 Log AC50 (M) and -5.2986 Log AC50 (M); AC50 ([6]; Plasmodium falciparum, DD2, 72 h, read-out: Individual replicates / Log AC50 (M) (converted)): 3.56e-06 M; Individual replicates / Log AC50 (M) [7]: -5.2486 Log AC50 (M); AC50 ([7]; read-out: Individual replicates / Log AC50 (converted)): 4.48 µM
10 | CN1CCN(c2ccc3ncc(Nc4ccccc4-c4ccccc4)n3n2)CC1 [NCGC00412547-01] | – | 96% | 97.1% | 44.4 µM | -4.3528 M | 863 nM | 101% | 104% | 100% | 50.6% | 88.8% | 92.9% | 97.22% | 96.99% | –
11 | COc1ccccc1Nc1cnc2ccc(-c3ccc(OC)c(OC)c3)nn12 [NCGC00412573-01] | – | 108% | 73.1% | 44.4 µM | -4.3528 M | 1530 nM | 7.11% | 51.2% | 2.63% | 1.18% | 32.2% | 43.3% | 106.68% | 92.36% | Activity direction (Decrease / Inactive) ([1]; P. berghei liver stage, Method 2, dose response): Inactive; Max Resp (signal direction of the dose response) ([5]; Method 1): Decrease; AC50 ([5]; Method 1, Hill fit, 50% of maximum activity response, read-out: AC50): 447 nM; Log AC50 (M) [5, 16]: -6.350 M; AC50 ([5]; Plasmodium berghei, Method 1, Hill fit, 50% of maximum activity response, read-out: AC50): 355 nM; AC50 [5, 17]: 355 nM
12 | COc1ccc(CN2CCCn3nc(C)c(-c4ccccc4Oc4ccccc4)c32)cc1O [NCGC00420291-01] | – | 101% | 105% | 43.2 µM | -4.3643 M | 9440 nM | 77.1% | 79.5% | 133% | 83.6% | 59.5% | 87.2% | 99.76% | 103.00% | –
13 | O=C(Nc1ccccc1)OC[C@H]1C[C@@H]2CCN1C[C@@H]2c1cc(C2CCCC2)nc(-c2ccncc2)n1 [NCGC00421344-01] | – | – | – | 34.3 µM | -4.4643 M | 1680 nM | 68.5% | 91.8% | 72.8% | 27.1% | 71.6% | 77.7% | – | – | viability at 48 h, 1 µM (in vitro [2]): 101%; viability at 48 h, 3 µM (in vitro [2]): 105%; HepG2 viability signal, 1 uM, repeat 2 (HepG2-A16-CD81EGFP cells; human, 48 h, 1 µM): 103.60%; HepG2 viability signal, 3 uM, repeat 2 (HepG2-A16-CD81EGFP cells; human, 48 h, 3 µM): 105.28%

Reference: PMC7822874, “Chemoprotective antimalarials identified through quantitative high-throughput screening of Plasmodium blood and liver stage parasites” (Scientific Reports, 2021)
